{"source": "patent US20210220384A1", "about": "“ORAL ADMINISTRABLE PHARMACEUTICAL COMPOSITION” (TAIHO PHARMACEUTICAL CO., LTD., priority 2012, published 2021)", "data": [{"assay": "Critical relative humidity of additives by moisture sorption analyzer (Test Example 1)", "type": "physicochemical", "settings": "of the additive (excipient) alone, moisture sorption analyzer DVS-1", "experimental": "The orally administrable pharmaceutical composition of the present invention, to which sugars having a critical relative humidity of 85% or more at 25° C. as an excipient is added, suppresses increases in FTD and TPI related substances even stored under high-humidity conditions. A “critical relative humidity” herein means a well-known indicator representing the hygroscopicity, and refers to a relative humidity when a rapid increase in the amount of moisture absorbed in a sample is observed in the case where the relative humidity is increased. The critical relative humidity can be checked by measuring the change in the weight of a sample at 25° C. and a relative humidity of from 10 to 95% using, for example, a moisture sorption analyzer (DVS-1, Surface Measurement Systems Ltd.). “A critical relative humidity at 25° C. is 85% or more” means that moisture is not substantially absorbed when the relative humidity at 25° C. is less than 85%. Also, “no critical relative humidity” means that moisture is absorbed at a low humidity depending on the humidity, and a rapid increase in the amount of moisture absorbed associated with an increase in the relative humidity is not observed.\nThe critical relative humidity of additives at 25° C. shown in Tables 1 and 2 was measured using a moisture sorption analyzer (DVS-1, Surface Measurement Systems Ltd.).", "values": [{"molecule": "OC[C@@H](O)[C@@H](O)[C@H](O)[C@H](O)CO", "note": "[D-mannitol]", "Critical relative humidity (%, at 25° C.)": "95 or more %"}, {"molecule": "OC[C@@H](O)[C@@H](O)[C@H](O)[C@@H](O)CO", "note": "[D-sorbitol]", "Critical relative humidity (%, at 25° C.)": "50-60%"}, {"molecule": "O.OC[C@H]1O[C@@H](O[C@H]2[C@H](O)[C@@H](O)C(O)O[C@@H]2CO)[C@H](O)[C@@H](O)[C@H]1O", "note": "(some centres unmarked) [Lactose hydrate, lactose hydrate]", "Critical relative humidity (%, at 25° C.)": "95 or more %"}, {"molecule": "OC[C@H]1O[C@@](CO)(O[C@H]2O[C@H](CO)[C@@H](O)[C@H](O)[C@H]2O)[C@@H](O)[C@@H]1O", "note": "[Sucrose, sucrose]", "Critical relative humidity (%, at 25° C.)": "85 or more %"}, {"molecule": "OC[C@@H](O)[C@H](O)[C@@H](O)CO", "note": "[Xylitol, xylitol]", "Critical relative humidity (%, at 25° C.)": "75-85%"}]}]}
